Laboratory results published in patent US20130052162A1, “BOOSTING IMMUNE DEFENSE BY UPREGULATING CCAAT/ENHANCER BINDING PROTEIN EPSILON” (CEDARS-SINAI MEDICAL CENTER, priority 2010, published 2013).
Several values for one entry are separate records, joined by “and”; a condition that tells them apart may be missing. Equal values may be shown once. Entries after “also recorded” stand apart in the source; their conditions may differ.

Columns and labels:
CEBPE promoter region = test: ChIP: histone H3 acetylation at CEBPE promoter in BMMC; assay type: cell-based, mouse; conditions: WT BMMC, 1 mM NAM, 12 h, vs untreated
Method: ChIP assay kit (Upstate Biotechnology, Lake Placid, N.Y.) was used, and chromatin was prepared for IP as instructed by the manufacturer. The sonicated chromatin was immunoprecipitated with either 5 μg of anti-acetylated histone H3 antibody or normal rabbit IgG antibody as negative control (Upstate Biotechnology). Immunoprecipitated DNA was subsequently analyzed by PCR using primers specific for the CEBPE promoter region; input chromatin was analyzed for β-actin mRNA as a positive control. The optimal reaction conditions for PCR were determined for each primer pair. Primers were denatured at 95° C. for 1 min and annealed at 60° C. for 1 min, followed by elongation at 72° C. for 1 min; each product was amplified 35 cycles. PCR products were analyzed by 2.5% agarose/ethidium bromide gel electrophoresis. […] The primers used for ChIP analysis were: human CEBPE 5′-GCTTTGGCCAAGCCCAGGGA-3′ (forward) (SEQ ID NO: 9), 5′-TGCTGGGCTCCACCTACCCC-3′ (reverse) (SEQ ID NO: 10); human β-actin: 5′-CTCCTCGGGAGCCACACGCA-3′ (forward) (SEQ ID NO: 1), 5′-TAGGGGAGCTGGCTGGGTGG-3′ (reverse) (SEQ ID NO: 12); murine CEBPE: 5′-TGAGGCTGCAGCTTGCCTGG-3′ (forward) (SEQ ID NO: 13), 5′-ACCAAGCTACCCCTGGCCCT-3′ (reverse) (SEQ ID NO: 14), murine β-actin: 5′-ACCTGTTACTTTGGGAGTGGCAAGC-3′ (forward) (SEQ ID NO: 15), 5′-GTCGTCCCAGTTGCTAACAATGCC-3′ (reverse) (SEQ ID NO: 16).

LF-promoter = test: LF reporter gene (LAC-LUC) luciferase assay in U937 cells; assay type: cell-based, human; conditions: 1 mM NAM, 16 h, vs PBS
Method: The inventors designed a −230 LF promoter reporter plasmid (LAC-LUC) including a C/EBP-binding site as previously described^15. For the reporter gene assay, 2×10^6 […] cells were transiently transfected either with 2 μg of the LAC-LUC luciferase reporter gene constructs or the empty-vector control (pGL3, Promega, Madison, Wis., USA), as well as 0.2 μg of Renilla luciferase (pRL-SV40). Transfections were performed using the nucleofection technique with the Amaxa-Kit (Invitrogen, Karlsruhe, Germany) according to the manufacturer's instructions. After 16 h of transfection, the cells were treated with NAM (1 mM) for an additional 16 h. The lysates were harvested and luciferase activity measured by the Dual-Luciferase reporter assay system (Promega, Madison, Wis., USA). For all transfection studies, luciferase activity was normalized using pRL-SV40 activity. Results represent the mean of three independent experiments performed in triplicate.

K. pneumoniae = test: Human peripheral whole blood killing assay, K. pneumoniae; assay type: cell-based; conditions: NAM-pretreated human blood, 3 h of infection
Method: This well described phagocytic survival assay has been previously reported^42. Bacteria was pelleted, washed twice, diluted to the specified inoculum in 25 μl PBS (without Ca^2+ and Mg^2+), and immediately mixed with 75 μl of freshly drawn human or murine peripheral whole blood in sterile heparinized 2 mL round-bottom Eppendorf tubes. When required, murine plasma was obtained by centrifugation of heparinized whole blood at 2000×g for 15 min at RT. Reactions (performed in minimum in triplicate) were incubated at 37° C. for 1-3 h on a rotary shaker, at which time ten-fold serial dilutions were plated on THA for enumeration of surviving CFU.
When required, freshly drawn human or murine peripheral blood was pretreated with NAM (˜0.1 mM or ˜10 mM) or PBS (without Ca^2+ and Mg^2+), prior to inoculation with bacteria.
Participants in the inventors' study included 15 healthy humans with a negative history of infection or antibiotic treatments in the prior 4 weeks. Peripheral blood was collected from individuals in a fasting condition. Polymorph-prep (Axis-Shield, Oslo, Norway) was used for the isolation of PMNs according to the manufacturer's protocol.

S. aureus = test: Effect of NAM on growth and viability of S. aureus; assay type: cell-based, Staphylococcus aureus; conditions: 6 h
Method: The inventors assessed whether NAM, at the concentrations used in the study, adversely affect the growth and viability of S. aureus. PBS was chosen as an inert non-growth medium, and THB was chosen as a suitable growth medium for S. aureus. Seventy-five microliters of NAM (1 mM and 10 mM final concentrations; in either THB or PBS) or THB or PBS alone (respective controls) were placed in sterile 2 mL round-bottom Eppendorf tubes, and then inoculated with S. aureus (˜1×10^4 CFU/mL in 25 μl of PBS or THB) and immediately briefly vortexed. Triplicate reactions were incubated at 37° C. for 1 h, 3 h, and 6 h on a rotary shaker at which time ten-fold serial dilutions were plated on THIA for enumeration of CFU.
In a different assay, S. aureus (˜1×10^8 CFU/mL in THB) was incubated with or without 50 mM NAM. This concentration represents the equivalent molarity of NAM used in the in vivo experiments. Triplicate 1 mL reactions were incubated at 37° C. on a rotary shaker and at various time points (6 h, 12 h, and 24 h) ten-fold serial dilutions were plated on THA for enumeration of CFU. This assay was performed on two independent occasions using inocula generated from three separate bacterial cultures.

[1] = CBC of peripheral whole blood of WT mice treated in vivo with NAM; set-up: species or system mouse
Method: WT mice treated in vivo with NAM (250 mg/kg/day; i.p.) or PBS (control) for a) 24 h, b) 48 h, and c) 72 h. Then, peripheral whole blood was removed from each of the mice and CBCs were performed. […] (Table 2A-C)

[2] = 24 h post-treatment, 250 mg/kg/d, individual mice, 250 mg/kg/day

NC(=O)c1cccnc1 [NAM, Nicotinamide]
increase in histone acetylation at the CEBPE promoter (CEBPE promoter region): 3 fold
increase in LF reporter gene activity (LF-promoter): 2.5 fold
K. pneumoniae CFU recovered / outcome, NAM- vs PBS-treated blood (K. pneumoniae): improved the outcome of infection; also recorded: Significantly less CFU
direct anti-staphylococcal activity (CFU vs control) (S. aureus; 1 mM and 10 mM NAM in THB or PBS, 1 h, 3 h, no phagocytic cells): no direct anti-staphylococcal activity; also recorded: No differences
direct anti-staphylococcal activity (CFU vs control) (S. aureus; 50 mM NAM in THB, 12 h, 24 h): No difference in CFU
Hematological Abnormalities ([1]; 24 h post-treatment, 250 mg/kg/d, individual mice): Normal
LY [1, 2]: 3.97 K/uL and 1.89 K/uL and 3.84 K/uL and 76.92% and 67.88% and 71.36%
MO [1, 2]: 0.18 K/uL and 0.28 K/uL and 3.77% and 6.47% and 5.28%
NE [1, 2]: 0.95 K/uL and 0.65 K/uL and 1.00 K/uL and 18.47% and 23.40% and 18.67%
WBC [1, 2]: 5.16 K/uL and 2.78 K/uL and 5.38 K/uL
WBC, Mean ([1]; 24 h post-treatment, 250 mg/kg/d, mean of 10 mice): 3.63 K/uL
Hematological Abnormalities ([1]; 48 h post-treatment, 250 mg/kg/d, individual mice): Normal
WBC ([1]; 48 h post-treatment, 250 mg/kg/d, individual mice, 250 mg/kg/day): 6.34 K/uL and 1.86 K/uL and 3.30 K/uL and 4.64 K/uL and 2.70 K/uL
WBC, Mean ([1]; 48 h post-treatment, 250 mg/kg/d, mean of 5 mice): 3.77 K/uL
Hematological Abnormalities ([1]; 72 h post-treatment, 250 mg/kg/d, individual mice): Normal
WBC ([1]; 72 h post-treatment, 250 mg/kg/d, individual mice, 250 mg/kg/day): 2.20 K/uL and 4.08 K/uL and 5.66 K/uL and 2.24 K/uL and 3.62 K/uL and 6.22 K/uL and 3.06 K/uL and 5.48 K/uL
WBC, Mean ([1]; 72 h post-treatment, 250 mg/kg/d, mean of 8 mice): 4.07 K/uL
CBCs, NAM- vs PBS-treated mice ([1]; mouse, in vivo): No differences in CBCs
